Measured values: ChEMBL document CHEMBL1137226, “Structure modifications of 6-aminoquinolones with potent anti-HIV activity” (J Med Chem, 2004)
In brackets after ≈: the same amount, converted by molar mass.

How the values were obtained:
MT4 [1] = experiment: Selectivity index towards HIV-2 (ROD) in MT-4 cells; assay type: functional, Homo sapiens
MT4 [2] = experiment: Maximum protection (%) of MT-4 cells from HIV-2 (ROD) induced cytopathogenicity; value ranges from 21-26%; assay type: functional, Homo sapiens
MT4 [3] = experiment: Concentration of compound that reduces the viability of mock-infected MT-4 cells by 50%; assay type: functional; conditions: Homo sapiens
MT4 [4] = experiment: Concentration required for protection of MT-4 cells from HIV-2 (ROD) induced cytopathogenicity in MTT assay; assay type: functional, cell-based; conditions: Homo sapiens
MT4 [5] = experiment: Concentration required for protection of MT-4 cells from HIV-1 (IIIB) induced cytopathogenicity in MTT assay; assay type: functional, cell-based; conditions: Homo sapiens
MT4 [6] = experiment: Maximum protection (%) of MT-4 cells from HIV-1 (IIIB) induced cytopathogenicity; value ranges from 16-49%; assay type: functional, Homo sapiens
MT4 [7] = experiment: Selectivity index towards HIV-1 (IIIB) in MT-4 cells; assay type: functional, Homo sapiens
MT4 [8] = experiment: Maximum protection (%) of MT-4 cells from HIV-1 (IIIB) induced cytopathogenicity; value ranges from 16-36%; assay type: functional, Homo sapiens
MT4 [9] = experiment: Maximum protection (%) of MT-4 cells from HIV-2 (ROD) induced cytopathogenicity; assay type: functional, Homo sapiens
MT4 [10] = experiment: Maximum protection (%) of MT-4 cells from HIV-2 (ROD) induced cytopathogenicity; value ranges from 40-42%; assay type: functional, Homo sapiens
MT4 [11] = experiment: Maximum protection (%) of MT-4 cells from HIV-1 (IIIB) induced cytopathogenicity; value ranges from 29-37%; assay type: functional, Homo sapiens
CCRF-CEM [12] = experiment: Concentration of compound required for protection of CEM cells from HIV-1 (IIIB) induced cytopathogenicity; assay type: functional, cell-based; conditions: Homo sapiens
[13] = Concentration of compound that reduces the viability of mock-infected peripheral blood mononuclear cells by 50%; assay type: functional; conditions: Homo sapiens
MT4 [14] = experiment: Maximum protection (%) of MT-4 cells from HIV-1 (IIIB) induced cytopathogenicity; value ranges from 32-62%; assay type: functional, Homo sapiens
CCRF-CEM [15] = experiment: Concentration of compound that reduces the viability of mock-infected CEM cells by 50%; assay type: functional; conditions: Homo sapiens
[16] = Selectivity index towards HIV-1 (IIIB) in peripheral blood mononuclear cells; assay type: functional, Homo sapiens
[17] = Concentration of compound required for reduction of p24 production in HIV-1 (IIIB) infected peripheral blood mononuclear cells; assay type: functional; conditions: Homo sapiens
CCRF-CEM [18] = experiment: Concentration of compound required for protection of CEM cells from HIV-2 (ROD) induced cytopathogenicity; assay type: functional, cell-based; conditions: Homo sapiens
MT4 [19] = experiment: Maximum protection (%) of MT-4 cells from HIV-2 (ROD) induced cytopathogenicity; value ranges from 55-58%; assay type: functional, Homo sapiens
CCRF-CEM [20] = experiment: Selectivity index towards HIV-1 (IIIB) in CEM cells; assay type: functional, Homo sapiens
CCRF-CEM [21] = experiment: Selectivity index towards HIV-2 (ROD) in CEM cells; assay type: functional, Homo sapiens
MT4 [22] = experiment: Maximum protection (%) of MT-4 cells from HIV-2 (ROD) induced cytopathogenicity; value ranges from 27-33%; assay type: functional, Homo sapiens
MT4 [23] = experiment: Maximum protection (%) of MT-4 cells from HIV-1 (IIIB) induced cytopathogenicity; value ranges from 32-39%; assay type: functional, Homo sapiens
MT4 [24] = experiment: Maximum protection (%) of MT-4 cells from HIV-1 (IIIB) induced cytopathogenicity; value ranges from 4-13%; assay type: functional, Homo sapiens
MT4 [25] = experiment: Maximum protection (%) of MT-4 cells from HIV-1 (IIIB) induced cytopathogenicity; value ranges from 8-9%; assay type: functional, Homo sapiens
MT4 [26] = experiment: Maximum protection (%) of MT-4 cells from HIV-1 (IIIB) induced cytopathogenicity; value ranges from 2-18%; assay type: functional, Homo sapiens
MT4 [27] = experiment: Maximum protection (%) of MT-4 cells from HIV-1 (IIIB) induced cytopathogenicity; value ranges from 88-115%; assay type: functional, Homo sapiens
MT4 [28] = experiment: Maximum protection (%) of MT-4 cells from HIV-2 (ROD) induced cytopathogenicity; value ranges from 40-43%; assay type: functional, Homo sapiens
MT4 [29] = experiment: Maximum protection (%) of MT-4 cells from HIV-1 (IIIB) induced cytopathogenicity; value ranges from 53-59%; assay type: functional, Homo sapiens
MT4 [30] = experiment: Maximum protection (%) of MT-4 cells from HIV-1 (IIIB) induced cytopathogenicity; value ranges from 14-20%; assay type: functional, Homo sapiens
MT4 [31] = experiment: Maximum protection (%) of MT-4 cells from HIV-1 (IIIB) induced cytopathogenicity; value ranges from 2-14%; assay type: functional, Homo sapiens
MT4 [32] = experiment: Maximum protection (%) of MT-4 cells from HIV-2 (ROD) induced cytopathogenicity; value ranges from 22-24%; assay type: functional, Homo sapiens
MT4 [33] = experiment: Maximum protection (%) of MT-4 cells from HIV-1 (IIIB) induced cytopathogenicity; value ranges from 34-37%; assay type: functional, Homo sapiens
MT4 [34] = experiment: Maximum protection (%) of MT-4 cells from HIV-1 (IIIB) induced cytopathogenicity; value ranges from 5-6%; assay type: functional, Homo sapiens
MT4 [35] = experiment: Maximum protection (%) of MT-4 cells from HIV-1 (IIIB) induced cytopathogenicity; value ranges from 3-8%; assay type: functional, Homo sapiens

COc1c(N2CCN(c3ccccn3)CC2)c(N)cc2c(=O)c(C(=O)O)cn(C)c12
Selectivity index (MT4 [1]): <1
Protection (MT4 [2]): <26%
CC50 (MT4 [3]): 4.28 µg/mL (≈ 10.5 µM)
EC50 (MT4 [4]): > 4.28 µg/mL
EC50 (MT4 [5]): > 4.28 µg/mL
Protection (MT4 [6]): <49%
Selectivity index (MT4 [7]): <1

Nc1cc2c(=O)c(C(=O)O)cn(C3CC3)c2cc1N1CCN(c2nc3ccccc3s2)CC1
Selectivity index (MT4 [1]): <1
CC50 (MT4 [3]): 0.07 µg/mL (≈ 0.152 µM)
EC50 (MT4 [4]): > 0.07 µg/mL
EC50 (MT4 [5]): > 0.07 µg/mL
Protection (MT4 [8]): <36%
Protection (MT4 [9]): 42%
Selectivity index (MT4 [7]): <1

Cn1cc(C(=O)O)c(=O)c2cc(N)c(N3CCN(c4ccccn4)CC3)c(F)c21
Selectivity index (MT4 [1]): <1
CC50 (MT4 [3]): 6.08 µg/mL (≈ 15.3 µM)
EC50 (MT4 [4]): > 6.08 µg/mL
Protection (MT4 [10]): <42%
EC50 (MT4 [5]): > 6.08 µg/mL
Selectivity index (MT4 [7]): <1
Protection (MT4 [11]): <37%

Nc1cc2c(=O)c(C(=O)O)cn(N3CCN(c4ccccn4)CC3)c2cc1N1CCN(c2ccccn2)CC1
Selectivity index (MT4 [1]): 3
EC50 (CCRF-CEM [12]): 9.4 µg/mL (≈ 17.9 µM)
CC50 (MT4 [3]): 58.5 µg/mL (≈ 111 µM)
CC50 [13]: ≥ 43.3 µg/mL
EC50 (MT4 [4]): 19.2 µg/mL (≈ 36.5 µM)
Protection (MT4 [14]): <62%
CC50 (CCRF-CEM [15]): > 100 µg/mL
Selectivity index [16]: >=19
EC50 (MT4 [5]): ≥ 17.4 µg/mL
EC50 [17]: 2.24 µg/mL (≈ 4.25 µM)
EC50 (CCRF-CEM [18]): 12 µg/mL (≈ 22.8 µM)
Protection (MT4 [19]): <58%
Selectivity index (CCRF-CEM [20]): >11
Selectivity index (MT4 [7]): <=3.4
Selectivity index (CCRF-CEM [21]): >8

Cn1cc(C(=O)O)c(=O)c2cnc(N3CCN(c4ccccn4)CC3)cc21
Selectivity index (MT4 [1]): <1
CC50 (MT4 [3]): 67.4 µg/mL (≈ 184 µM)
EC50 (MT4 [4]): > 67.4 µg/mL
Protection (MT4 [22]): <33%
EC50 (MT4 [5]): > 67.4 µg/mL
Protection (MT4 [23]): <39%
Selectivity index (MT4 [7]): <1

Cn1cc(C(=O)O)c(=O)c2cc([N+](=O)[O-])c(N3CCN(c4ccccn4)CC3)cc21
Selectivity index (MT4 [1]): <1
CC50 (MT4 [3]): 10.1 µg/mL (≈ 24.6 µM)
EC50 (MT4 [4]): > 10.1 µg/mL
Protection (MT4 [24]): <13%
EC50 (MT4 [5]): > 10.1 µg/mL
Protection (MT4 [9]): 5%
Selectivity index (MT4 [7]): <1

COc1ccccc1N1CCN(c2ccc3c(=O)c(C(=O)O)cn(C)c3c2)CC1
CC50 (MT4 [3]): > 125 µg/mL
EC50 (MT4 [4]): > 125 µg/mL
EC50 (MT4 [5]): > 125 µg/mL
Protection (MT4 [9]): 6%
Protection (MT4 [25]): <9%

Nc1cc2c(=O)c(C(=O)O)cn(N3CCN(c4ccccn4)CC3)c2cc1N1CCN(c2nc3ccccc3s2)CC1
Selectivity index (MT4 [1]): <1
CC50 (MT4 [3]): 0.24 µg/mL (≈ 0.412 µM)
Protection (MT4 [26]): <18%
EC50 (MT4 [4]): > 0.24 µg/mL
EC50 (MT4 [5]): > 0.24 µg/mL
Protection (MT4 [9]): 0%
Selectivity index (MT4 [7]): <1

Nc1cc2c(=O)c(C(=O)O)cn(C3CC3)c2cc1N1CCN(c2cccc(C(F)(F)F)c2)CC1
Selectivity index (MT4 [1]): 10.1
EC50 (CCRF-CEM [12]): 0.8 µg/mL (≈ 1.69 µM)
CC50 (MT4 [3]): 3.83 µg/mL (≈ 8.11 µM)
CC50 [13]: 4.63 µg/mL (≈ 9.8 µM)
Protection (MT4 [27]): <115%
EC50 (MT4 [4]): 0.38 µg/mL (≈ 0.804 µM)
CC50 (CCRF-CEM [15]): 9 µg/mL (≈ 19 µM)
Selectivity index [16]: 4
EC50 (MT4 [5]): 0.27 µg/mL (≈ 0.571 µM)
EC50 [17]: 1.09 µg/mL (≈ 2.31 µM)
EC50 (CCRF-CEM [18]): 0.8 µg/mL (≈ 1.69 µM)
Selectivity index (CCRF-CEM [20]): 11
Protection (MT4 [9]): 71%
Selectivity index (MT4 [7]): 14.2
Selectivity index (CCRF-CEM [21]): 11

Cn1cc(C(=O)O)c(=O)c2ccc(N3CCN(c4ccccn4)CC3)cc21
Selectivity index (MT4 [1]): <1
Protection (MT4 [28]): <43%
EC50 (CCRF-CEM [12]): 1.2 µg/mL (≈ 3.29 µM)
CC50 (MT4 [3]): 65.5 µg/mL (≈ 180 µM)
Protection (MT4 [29]): <59%
CC50 [13]: > 100 µg/mL
EC50 (MT4 [4]): > 65.5 µg/mL
CC50 (CCRF-CEM [15]): > 100 µg/mL
Selectivity index [16]: >73
EC50 (MT4 [5]): 19.2 µg/mL (≈ 52.7 µM)
EC50 [17]: 1.37 µg/mL (≈ 3.76 µM)
EC50 (CCRF-CEM [18]): 1.8 µg/mL (≈ 4.94 µM)
Selectivity index (CCRF-CEM [20]): >83
Selectivity index (MT4 [7]): 3.4
Selectivity index (CCRF-CEM [21]): >56

Nc1cc2c(=O)c(C(=O)O)cn(-c3nc4ccccc4s3)c2cc1N1CCN(c2ccccn2)CC1
Selectivity index (MT4 [1]): <1
CC50 (MT4 [3]): 9.13 µg/mL (≈ 18.3 µM)
EC50 (MT4 [4]): > 9.13 µg/mL
Protection (MT4 [30]): <20%
EC50 (MT4 [5]): > 9.13 µg/mL
Protection (MT4 [9]): 21%
Selectivity index (MT4 [7]): <1

Nc1cc2c(=O)c(C(=O)O)cn(C3CCN(Cc4ccccc4)CC3)c2cc1N1CCN(c2ccccn2)CC1
Selectivity index (MT4 [1]): <1
Protection (MT4 [31]): <14%
CC50 (MT4 [3]): 2.36 µg/mL (≈ 4.38 µM)
EC50 (MT4 [4]): > 2.36 µg/mL
EC50 (MT4 [5]): > 2.36 µg/mL
Protection (MT4 [9]): 5%
Selectivity index (MT4 [7]): <1

Nc1cc2c(=O)c(C(=O)O)cn(-c3ccc(F)cc3)c2cc1N1CCN(c2ccccn2)CC1
Selectivity index (MT4 [1]): <1
CC50 (MT4 [3]): 22 µg/mL (≈ 47.9 µM)
EC50 (MT4 [4]): > 22 µg/mL
EC50 (MT4 [5]): > 22 µg/mL
Selectivity index (MT4 [7]): <1
Protection (MT4 [32]): <24%
Protection (MT4 [33]): <37%

Nc1cc2c(=O)c(C(=O)O)cn(-c3ccc(-c4ccccc4)cc3)c2cc1N1CCN(c2nc3ccccc3s2)CC1
Selectivity index (MT4 [1]): <1
CC50 (MT4 [3]): 0.67 µg/mL (≈ 1.17 µM)
EC50 (MT4 [4]): > 0.67 µg/mL
EC50 (MT4 [5]): > 0.67 µg/mL
Protection (MT4 [9]): 1%
Selectivity index (MT4 [7]): <1
Protection (MT4 [34]): <6%

Cn1cc(C(=O)O)c(=O)c2cc([N+](=O)[O-])c(N3CCN(c4ccccn4)CC3)c(F)c21
Selectivity index (MT4 [1]): <1
CC50 (MT4 [3]): 29.6 µg/mL (≈ 69.2 µM)
Protection (MT4 [35]): <8%
EC50 (MT4 [4]): > 29.6 µg/mL
EC50 (MT4 [5]): > 29.6 µg/mL
Protection (MT4 [9]): 4%
Selectivity index (MT4 [7]): <1
